# Measured values published in paper PMC7044277 (Nature Communications, 2020).
# Where “and” joins values, the source holds several entries; their conditions need not be identical. Identical values can stand only once.
# Key:
# Format in all cases: cell-based
# 320 non-olfactory GPCRs [1] = molecular target: T1, 320 non-olfactory GPCRs (Homo sapiens, UniProt Q9H244); conditions: receptor P2RY12; replicate values, Fig_4g
# T1 construct: expressed in transfected cells; host or cells: HTLA cells
# 320 non-olfactory GPCRs [2] = molecular target: 320 non-olfactory GPCRs (Homo sapiens, UniProt P32239)
# Sequence of 320 non-olfactory GPCRs (Homo sapiens, UniProt P32239) (P32239 whole entry): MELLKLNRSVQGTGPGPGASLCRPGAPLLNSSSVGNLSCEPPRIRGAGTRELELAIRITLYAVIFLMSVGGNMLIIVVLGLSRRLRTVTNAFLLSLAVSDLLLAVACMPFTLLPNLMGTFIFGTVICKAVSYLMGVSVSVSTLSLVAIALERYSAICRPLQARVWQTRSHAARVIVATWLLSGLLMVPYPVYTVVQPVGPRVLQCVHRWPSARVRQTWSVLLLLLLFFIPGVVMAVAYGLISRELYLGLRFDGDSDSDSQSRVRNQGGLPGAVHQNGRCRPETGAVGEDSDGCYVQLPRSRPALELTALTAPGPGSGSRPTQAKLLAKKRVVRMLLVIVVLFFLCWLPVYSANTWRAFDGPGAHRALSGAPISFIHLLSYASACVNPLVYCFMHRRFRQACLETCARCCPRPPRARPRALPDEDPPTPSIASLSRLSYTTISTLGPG
# 320 non-olfactory GPCRs [3] = molecular target: T2, 320 non-olfactory GPCRs (Homo sapiens, UniProt Q86SQ4)
# T2 construct: expressed in transfected cells; host or cells: HTLA cells
# T2 sequence (Q86SQ4 38-1221): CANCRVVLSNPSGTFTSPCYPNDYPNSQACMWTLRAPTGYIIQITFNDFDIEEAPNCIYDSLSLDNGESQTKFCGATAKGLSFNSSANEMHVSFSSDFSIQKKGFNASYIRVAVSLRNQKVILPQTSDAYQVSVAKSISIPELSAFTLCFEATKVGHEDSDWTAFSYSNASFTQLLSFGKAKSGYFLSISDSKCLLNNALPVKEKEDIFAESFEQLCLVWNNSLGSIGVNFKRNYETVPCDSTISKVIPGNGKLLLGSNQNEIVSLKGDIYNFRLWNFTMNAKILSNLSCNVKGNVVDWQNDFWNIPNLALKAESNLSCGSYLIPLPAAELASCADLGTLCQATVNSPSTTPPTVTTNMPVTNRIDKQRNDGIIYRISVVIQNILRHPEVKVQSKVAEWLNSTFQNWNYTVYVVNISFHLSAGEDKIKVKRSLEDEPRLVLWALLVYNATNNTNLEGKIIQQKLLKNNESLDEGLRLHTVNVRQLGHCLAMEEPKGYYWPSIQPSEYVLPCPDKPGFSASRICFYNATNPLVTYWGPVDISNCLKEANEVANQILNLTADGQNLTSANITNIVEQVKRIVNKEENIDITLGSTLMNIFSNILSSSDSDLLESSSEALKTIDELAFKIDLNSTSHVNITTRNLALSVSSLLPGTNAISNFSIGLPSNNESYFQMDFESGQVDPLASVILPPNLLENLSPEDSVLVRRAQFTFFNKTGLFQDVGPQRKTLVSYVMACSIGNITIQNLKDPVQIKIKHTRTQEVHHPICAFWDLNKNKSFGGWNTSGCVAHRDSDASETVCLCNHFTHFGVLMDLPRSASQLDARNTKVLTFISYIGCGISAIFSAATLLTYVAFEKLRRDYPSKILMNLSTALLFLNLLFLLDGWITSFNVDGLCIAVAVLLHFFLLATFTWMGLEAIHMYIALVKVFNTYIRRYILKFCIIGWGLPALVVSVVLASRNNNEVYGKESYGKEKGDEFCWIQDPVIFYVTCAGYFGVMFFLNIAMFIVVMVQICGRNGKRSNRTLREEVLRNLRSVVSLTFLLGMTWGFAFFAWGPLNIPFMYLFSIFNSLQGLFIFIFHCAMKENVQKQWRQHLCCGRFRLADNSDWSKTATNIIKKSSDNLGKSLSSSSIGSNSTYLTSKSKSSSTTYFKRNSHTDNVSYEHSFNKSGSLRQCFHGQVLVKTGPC
# 320 non-olfactory GPCRs [4] = molecular target: T3, 320 non-olfactory GPCRs (Homo sapiens, UniProt P30559); conditions: receptor OXTR; replicate values, Fig_4g
# T3 construct: expressed in transfected cells; host or cells: HTLA cells
# T3 sequence (P30559 whole entry): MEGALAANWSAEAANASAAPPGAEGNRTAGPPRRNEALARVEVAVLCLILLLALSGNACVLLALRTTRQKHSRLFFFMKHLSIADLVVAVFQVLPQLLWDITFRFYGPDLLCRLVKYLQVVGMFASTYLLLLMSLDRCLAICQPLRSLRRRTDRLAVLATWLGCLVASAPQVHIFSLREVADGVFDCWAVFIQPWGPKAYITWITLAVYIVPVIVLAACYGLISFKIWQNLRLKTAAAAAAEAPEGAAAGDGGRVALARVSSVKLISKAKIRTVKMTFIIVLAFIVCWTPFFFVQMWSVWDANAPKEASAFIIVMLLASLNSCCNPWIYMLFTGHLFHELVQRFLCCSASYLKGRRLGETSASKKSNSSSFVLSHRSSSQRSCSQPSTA
# 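Wherever Fold of Basal is given: compound tested at 1 µM final concentration.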
# 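Wherever GPCRome agonism screen response is given: fold over basal response of each receptor without drug.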
# T1 sequence (Q9H244 whole entry): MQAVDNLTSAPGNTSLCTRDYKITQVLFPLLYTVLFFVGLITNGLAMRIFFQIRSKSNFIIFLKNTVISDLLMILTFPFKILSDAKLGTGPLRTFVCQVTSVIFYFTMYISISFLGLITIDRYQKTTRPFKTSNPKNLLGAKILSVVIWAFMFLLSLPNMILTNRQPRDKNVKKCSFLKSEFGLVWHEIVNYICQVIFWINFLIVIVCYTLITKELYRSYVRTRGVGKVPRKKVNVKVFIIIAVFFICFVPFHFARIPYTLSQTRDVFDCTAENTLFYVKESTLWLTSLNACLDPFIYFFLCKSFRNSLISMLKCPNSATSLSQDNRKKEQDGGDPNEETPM
smiles,measurement,setting,value
CCOc1cccc2cc(C(C)NCC3(O)CCCCC3)oc12 (stereo not shown) [O4LE6],GPCRome agonism screen response,320 non-olfactory GPCRs [1],1.331 and 0.8524 and 1.417 and 1.455
same,Fold of Basal,320 non-olfactory GPCRs [2],1.067 and 0.8402 and 0.8391 and 1.015
same,Fold of Basal,320 non-olfactory GPCRs [3],0.5649 and 0.8908 and 0.7066 and 0.464
same,GPCRome agonism screen response,320 non-olfactory GPCRs [4],1.578 and 1.894 and 1.457 and 1.467
